Measurements from patent US20200368312A1 (priority 2017, published 2020).
Values after ≈ are worked out from the molar mass of the structure shown. Like-named read-outs stand apart in the source and are kept apart here.

Key:
Assay type in all cases: cell-based
Clostridium difficile = experiment: Broth microdilution MIC, C. difficile, anaerobic, supplemented Brucella Broth (Example 11, Table 7); details: C. difficile MMX 4381 ATCC 700057, toxinAB-negative
Streptococci = experiment: Broth microdilution MIC, Streptococci (Example 11, Table 7)
S. epidermidis (CoNS) = experiment: Broth microdilution MIC, S. epidermidis (CoNS) (Table 7)
Staphylococcus aureus = experiment: microbe, parasite or virus in culture; details: for MIC: Staphylococcus aureus, read-out: MIC
S. hominis (CoNS) = experiment: Broth microdilution MIC, S. hominis (CoNS) (Table 7); details: S. hominis (CoNS) MMX 667 ATCC 27844
S. lugdenensis (CoNS) = experiment: Broth microdilution MIC, S. lugdenensis (CoNS) (Table 7); details: S. lugdenensis (CoNS) MMX 8724
S. haemolyticus (CoNS) = experiment: Broth microdilution MIC, S. haemolyticus (CoNS) (Table 7); details: S. haemolyticus (CoNS) MMX 529 ATCC 29970
Enterococci = tested on: Enterococci
C. perfringens = tested on: C. perfringens
P. micros = experiment: Broth microdilution MIC, P. micros (Table 7); details: P. micros MMX 3546
P. acnes = experiment: Broth microdilution MIC, P. acnes (Table 7)
P. anaerobius = experiment: Broth microdilution MIC, P. anaerobius (Table 7); details: P. anaerobius MMX 1208 ATCC 27337
[1] = S. anginosus (AGS) MMX 1201 ATCC 33397
[2] = S. pneumoniae MMX 1195 ATCC 49619, PISP
[3] = S. epidermidis (CoNS) MMX 762, MRSE
[4] = S. epidermidis (CoNS) MMX 5145, MRSE
[5] = ATCC 29213 / MSSA, S. aureus MMX 100 ATCC 29213, MSSA (quality control)
[6] = ATCC 33591 / MRSA, S. aureus MMX 5717 ATCC 33591, MRSA
[7] = ATCC BAA-1556 / MRSA, S. aureus MMX 4675 ATCC BAA-1556, MRSA
[8] = ATCC BAA-1756 / MRSA, S. aureus MMX 2011 ATCC BAA-1756, MRSA
[9] = VISA, S. aureus MMX 1723, Mu50, VISA
[10] = VISA, S. aureus MMX 2124, VISA, DaptoNS
[11] = E. faecalis MMX 101 ATCC 29212, VSE

CC(=O)NC[C@H]1CN(c2ccc(N3CCOCC3)c(F)c2)C(=O)O1 [Linezolid]
MIC (Clostridium difficile): 1 µg/mL (≈ 2.96 µM) | MIC (Streptococci; S. agalactiae MMX 4088): 1 µg/mL (≈ 2.96 µM) | MIC (Streptococci; S. agalactiae MMX 4115, erm^R): 1 µg/mL (≈ 2.96 µM) | MIC (Streptococci; [1]): 0.5 µg/mL (≈ 1.48 µM) | MIC (Streptococci; S. constellatus (AGS) MMX 5677): 0.5 µg/mL (≈ 1.48 µM) | MIC (Streptococci; S. dysgalactiae MMX 5121): 1 µg/mL (≈ 2.96 µM) | MIC (Streptococci; S. dysgalactiae MMX 5123): 1 µg/mL (≈ 2.96 µM) | MIC (Streptococci; S. dysgalactiae MMX 5124): 1 µg/mL (≈ 2.96 µM) | MIC (Streptococci; S. mitis (MGS) MMX 5798): 0.5 µg/mL (≈ 1.48 µM) | MIC (Streptococci; S. oralis (MGS) MMX 5821): 1 µg/mL (≈ 2.96 µM) | MIC (Streptococci; S. pneumoniae MMX 432, PRSP): 1 µg/mL (≈ 2.96 µM) | MIC (Streptococci; S. pneumoniae MMX 747): 1 µg/mL (≈ 2.96 µM) | MIC (Streptococci; [2]): 1 µg/mL (≈ 2.96 µM) | MIC (Streptococci; S. pyogenes MMX 404 ATCC 19615): 2 µg/mL (≈ 5.93 µM) | MIC (Streptococci; S. pyogenes MMX 946, ermR): 1 µg/mL (≈ 2.96 µM) | MIC (Streptococci; S. pyogenes MMX 8778): 1 µg/mL (≈ 2.96 µM) | MIC (S. epidermidis (CoNS); [3]): 2 µg/mL (≈ 5.93 µM) | MIC (S. epidermidis (CoNS); [4]): 0.5 µg/mL (≈ 1.48 µM) | RV40 activity as compared to Comparator (Staphylococcus aureus; MRSA strains (Table 5), […]): 214 × | MIC (Staphylococcus aureus; [5]): 4 µg/mL (≈ 11.9 µM) | MIC (Staphylococcus aureus; [6]): 1 µg/mL (≈ 2.96 µM) | MIC (Staphylococcus aureus; [7]): 1.5 µg/mL (≈ 4.45 µM) | MIC (Staphylococcus aureus; [8]): 2 µg/mL (≈ 5.93 µM) | MIC (Staphylococcus aureus; MRSA, S. aureus MMX 2010, MRSA): 3 µg/mL (≈ 8.89 µM) | MIC (Staphylococcus aureus; MRSA, S. aureus MMX 3982, MRSA): 3 µg/mL (≈ 8.89 µM) | MIC (Staphylococcus aureus; MRSA, S. aureus MMX 5985, MRSA): 2.5 µg/mL (≈ 7.41 µM) | MIC (Staphylococcus aureus; MRSA, S. aureus MMX 5999, MRSA): 1.5 µg/mL (≈ 4.45 µM) | MIC (Staphylococcus aureus; MRSA, S. aureus MMX 7899, MRSA): 1.5 µg/mL (≈ 4.45 µM) | MIC (Staphylococcus aureus; MRSA, S. aureus MMX 7900, MRSA): 2 µg/mL (≈ 5.93 µM) | MIC (Staphylococcus aureus; MRSA, S. aureus MMX 7901, MRSA): 2 µg/mL (≈ 5.93 µM) | MIC (Staphylococcus aureus; MRSA, S. aureus MMX 7902, MRSA): 2 µg/mL (≈ 5.93 µM) | MIC (Staphylococcus aureus; MRSA, S. aureus MMX 7903, MRSA): 1.5 µg/mL (≈ 4.45 µM) | MIC (Staphylococcus aureus; MSSA, S. aureus MMX 2490, MSSA): 1.5 µg/mL (≈ 4.45 µM) | MIC (Staphylococcus aureus; MSSA, S. aureus MMX 7907, MSSA): 3 µg/mL (≈ 8.89 µM) | MIC (Staphylococcus aureus; MSSA, S. aureus MMX 7908, MSSA): 2 µg/mL (≈ 5.93 µM) | MIC (Staphylococcus aureus; S. aureus MMX 4665, hVISA): 1.5 µg/mL (≈ 4.45 µM) | MIC (Staphylococcus aureus; S. aureus MMX 5989, Mu3, hVISA): 1.5 µg/mL (≈ 4.45 µM) | MIC (Staphylococcus aureus; [9]): 1.25 µg/mL (≈ 3.71 µM) | MIC (Staphylococcus aureus; [10]): 1.5 µg/mL (≈ 4.45 µM) | MIC (Staphylococcus aureus; VISA, S. aureus MMX 4658, VISA): 1.5 µg/mL (≈ 4.45 µM) | MIC (Staphylococcus aureus; VISA, S. aureus MMX 4660, VISA): 2.5 µg/mL (≈ 7.41 µM) | MIC (S. hominis (CoNS)): 1 µg/mL (≈ 2.96 µM) | MIC (S. lugdenensis (CoNS)): 0.5 µg/mL (≈ 1.48 µM) | MIC (S. haemolyticus (CoNS)): 0.5 µg/mL (≈ 1.48 µM) | MIC (Enterococci; [11]): 2 µg/mL (≈ 5.93 µM) | MIC (Enterococci; E. faecalis MMX 1086, VanA VRE): 2 µg/mL (≈ 5.93 µM) | MIC (Enterococci; E. faecalis MMX 4176): 4 µg/mL (≈ 11.9 µM) | MIC (Enterococci; E. faecium MMX 173, VanB VRE): 4 µg/mL (≈ 11.9 µM) | MIC (Enterococci; E. faecium MMX 851, VanA VRE): 2 µg/mL (≈ 5.93 µM) | MIC (Enterococci; E. faecium MMX 4204): 2 µg/mL (≈ 5.93 µM)

CN[C@H](CC(C)C)C(=O)N[C@H]1C(=O)N[C@@H](CC(N)=O)C(=O)N[C@H]2C(=O)N[C@H]3C(=O)N[C@H](C(=O)N[C@H](C(=O)O)c4cc(O)cc(O)c4-c4cc3ccc4O)[C@H](O[C@H]3C[C@](C)(N)[C@@H](O)[C@H](C)O3)c3ccc(c(Cl)c3)Oc3cc2cc(c3O[C@@H]2O[C@H](CO)[C@@H](O)[C@H](O)[C@H]2O[C@H]2C[C@](C)(NCc3ccc(-c4ccc(Cl)cc4)cc3)[C@@H](O)[C@H](C)O2)Oc2ccc(cc2Cl)[C@H]1O [Oritavancin]
MIC (Streptococci; S. agalactiae MMX 427 ATCC 13813): 1 µg/mL (≈ 0.558 µM) | MIC (Streptococci; S. agalactiae MMX 4088): 0.12 µg/mL (≈ 0.0669 µM) | MIC (Streptococci; S. agalactiae MMX 4115, erm^R): 0.25 µg/mL (≈ 0.139 µM) | MIC (Streptococci; [1]): 0.5 µg/mL (≈ 0.279 µM) | MIC (Streptococci; S. constellatus (AGS) MMX 5677): ≤ 0.008 µg/mL | MIC (Streptococci; S. dysgalactiae MMX 5121): 0.05 µg/mL (≈ 0.0279 µM) | MIC (Streptococci; S. dysgalactiae MMX 5123): 2 µg/mL (≈ 1.12 µM) | MIC (Streptococci; S. dysgalactiae MMX 5124): 1 µg/mL (≈ 0.558 µM) | MIC (Streptococci; S. mitis (MGS) MMX 1205 ATCC 49456): 0.03 µg/mL (≈ 0.0167 µM) | MIC (Streptococci; S. mitis (MGS) MMX 5798): 0.25 µg/mL (≈ 0.139 µM) | MIC (Streptococci; S. oralis (MGS) MMX 5821): ≤ 0.008 µg/mL | MIC (Streptococci; S. pneumoniae MMX 432, PRSP): ≤ 0.008 µg/mL | MIC (Streptococci; S. pneumoniae MMX 747): ≤ 0.008 µg/mL | MIC (Streptococci; [2]): ≤ 0.008 µg/mL | MIC (Streptococci; S. pyogenes MMX 404 ATCC 19615): 2 µg/mL (≈ 1.12 µM) | MIC (Streptococci; S. pyogenes MMX 946, ermR): 0.25 µg/mL (≈ 0.139 µM) | MIC (Streptococci; S. pyogenes MMX 8778): 1 µg/mL (≈ 0.558 µM) | MIC (S. epidermidis (CoNS); [3]): 0.25 µg/mL (≈ 0.139 µM) | MIC (S. epidermidis (CoNS); [4]): 0.12 µg/mL (≈ 0.0669 µM) | RV40 activity as compared to Comparator (Staphylococcus aureus): 17 × | MIC (Staphylococcus aureus; [5]): 0.03 µg/mL (≈ 0.0167 µM) | MIC (Staphylococcus aureus; [6]): 0.12 µg/mL (≈ 0.0669 µM) | MIC (Staphylococcus aureus; [7]): 0.06 µg/mL (≈ 0.0335 µM) | MIC (Staphylococcus aureus; [8]): 0.03 µg/mL (≈ 0.0167 µM) | MIC (Staphylococcus aureus; MRSA, S. aureus MMX 2010, MRSA): 0.06 µg/mL (≈ 0.0335 µM) | MIC (Staphylococcus aureus; MRSA, S. aureus MMX 3982, MRSA): 0.12 µg/mL (≈ 0.0669 µM) | MIC (Staphylococcus aureus; MRSA, S. aureus MMX 5985, MRSA): 0.03 µg/mL (≈ 0.0167 µM) | MIC (Staphylococcus aureus; MRSA, S. aureus MMX 5999, MRSA): 0.12 µg/mL (≈ 0.0669 µM) | MIC (Staphylococcus aureus; MRSA, S. aureus MMX 7899, MRSA): 0.12 µg/mL (≈ 0.0669 µM) | MIC (Staphylococcus aureus; MRSA, S. aureus MMX 7900, MRSA): 0.12 µg/mL (≈ 0.0669 µM) | MIC (Staphylococcus aureus; MRSA, S. aureus MMX 7901, MRSA): 0.5 µg/mL (≈ 0.279 µM) | MIC (Staphylococcus aureus; MRSA, S. aureus MMX 7902, MRSA): 0.5 µg/mL (≈ 0.279 µM) | MIC (Staphylococcus aureus; MRSA, S. aureus MMX 7903, MRSA): 0.06 µg/mL (≈ 0.0335 µM) | MIC (Staphylococcus aureus; MSSA, S. aureus MMX 2490, MSSA): 0.025 µg/mL (≈ 0.0139 µM) | MIC (Staphylococcus aureus; MSSA, S. aureus MMX 7907, MSSA): 0.06 µg/mL (≈ 0.0335 µM) | MIC (Staphylococcus aureus; MSSA, S. aureus MMX 7908, MSSA): 0.06 µg/mL (≈ 0.0335 µM) | MIC (Staphylococcus aureus; S. aureus MMX 4665, hVISA): 0.5 µg/mL (≈ 0.279 µM) | MIC (Staphylococcus aureus; S. aureus MMX 5989, Mu3, hVISA): 0.12 µg/mL (≈ 0.0669 µM) | MIC (Staphylococcus aureus; [9]): 1 µg/mL (≈ 0.558 µM) | MIC (Staphylococcus aureus; [10]): 1 µg/mL (≈ 0.558 µM) | MIC (Staphylococcus aureus; VISA, S. aureus MMX 4658, VISA): 0.25 µg/mL (≈ 0.139 µM) | MIC (Staphylococcus aureus; VISA, S. aureus MMX 4660, VISA): 1 µg/mL (≈ 0.558 µM) | MIC (C. perfringens): 0.015 µg/mL (≈ 0.00837 µM) | MIC (S. hominis (CoNS)): 0.06 µg/mL (≈ 0.0335 µM) | MIC (P. micros): 0.03 µg/mL (≈ 0.0167 µM) | MIC (S. lugdenensis (CoNS)): ≤ 0.008 µg/mL | MIC (S. haemolyticus (CoNS)): 0.12 µg/mL (≈ 0.0669 µM) | MIC (P. acnes; P. acnes MMX 7942 ATCC 6919): ≤ 0.008 µg/mL | MIC (P. acnes; P. acnes MMX 7946 ATCC 11827): ≤ 0.008 µg/mL | MIC (P. anaerobius): 0.03 µg/mL (≈ 0.0167 µM) | MIC (Enterococci; [11]): ≤ 0.008 µg/mL | MIC (Enterococci; E. faecalis MMX 1086, VanA VRE): 1 µg/mL (≈ 0.558 µM) | MIC (Enterococci; E. faecalis MMX 4176): 0.03 µg/mL (≈ 0.0167 µM) | MIC (Enterococci; E. faecium MMX 173, VanB VRE): ≤ 0.008 µg/mL | MIC (Enterococci; E. faecium MMX 851, VanA VRE): 0.12 µg/mL (≈ 0.0669 µM) | MIC (Enterococci; E. faecium MMX 4204): 0.015 µg/mL (≈ 0.00837 µM)
